Results published in patent US11505521B2 (Biothea Pharma, Inc., priority 2018, dated 2022).
Read-outs that look alike come from different tables or passages of the source.

Procedure: The stability of the pharmaceutical compositions of Example 3 were tested. The stability studies were conducted on packaged epinephrine salts at 25° C./RH 60% and 40° C./RH 75% conditions, as well as samples without packaging and exposed to light (4500 Lux) for one month. The appearance, assay content, and related substances were examined at 5, 7, 14 and 30 days.
(§1) The assay content was tested using Sartorius balances (Model SQP), an INESA pH meter (Model PHS-3E), a Thermo HPLC (UltiMate 3000 System, UV Wavelength: 205 nm), and Phenomenex Luna columns (5 μm C18 (2), 4.6×250 mm). The column temperature was 40° C., and the autosampler temperature was room temperature. The injection volume was 5 μL.
Mobile Phase A was prepared by weighing 4.0 g tetramethylammonium bisulfate (MERYER, Batch No. 77957139) and 1.1 sodium 1-heptasulfonate (Admas-beta, Batch No. P1343755), and transferring the materials to a flask. 2 mL of 0.1 mol/L EDTA solution (Brand: Sinopharm Chemical Reagent Co., Ltd., Batch No. 20150410) was added to the flask and the volume was adjusted to 950 mL using water. The solution was mixed and adjusted to a pH of 3.5 with 0.1N sodium hydroxide solution (Brand: Enox, Batch No. 20161201). Mobile Phase B was prepared using methanol. The isocratic elution was used in a proportion of A/B of 85/15. The run time was 10 minutes.
The assay content was analyzed by dissolving 20 mg of each sample to be examined in 50 mL of Mobile Phase A (0.4 mg/mL) as assay test solution. The sample was used and tested right after it was ready and was protected from light.
as §1, with “purity” for “assay content”, “PhenomenexSynergi” for “Phenomenex Luna”, “(4” for “(5”, “Polar-RP 80 A 250×4.6” for “C18 (2), 4.6×250”, “30°” for “40°”
Mobile Phase A was prepared by weighing 1.136 g of potassium dihydrogen orthophosphate (Brand: CNW, Batch No. A1040040) and 1.74 g of dipotassium hydrogen orthophosphate (Brand: Ourchem, Batch No. 20160219) and transferring into 1000 mL of water. The pH was adjusted to 3.0±0.05 with orthophosphoric acid (Brand: Ourchem, Batch No. 4112K060). The solution was filtered through a 0.45 μm membrane and degassed. Mobile Phase B was prepared using methanol. The run time was 50 minutes.
The purity was analyzed by dissolving 10 mg of each sample to be examined in 25 mL of Mobile Phase A (0.4 mg/mL) as purity and related substance test solution. The sample was used and tested right after it was ready and was protected from light.

[1] = light 4500 Lux, under air, 0 days
[2] = light 4500 Lux, under air, 5 days
[3] = light 4500 Lux, under air, 7 days
[4] = light 4500 Lux, under air, 14 days
[5] = light 4500 Lux, under air, 30 days

With `CNC[C@H](O)c1ccc(O)c(O)c1` [epinephrine bitartrate] the Appearance (25° C./60% RH, 0 days) was “Off-white”, the “Content (%)” value (25° C./60% RH, 0 days) was 100.00% and the “Related substance (%)” value (25° C./60% RH, 0 days) was 0.08%. For the same molecule, the Appearance (25° C./60% RH, 5 days) was “Off-white”, the “Content (%)” value (25° C./60% RH, 5 days) was 100.05% and the “Related substance (%)” value (25° C./60% RH, 5 days) was 0.08%. The Appearance (25° C./60% RH, 7 days) was “Off-white”, the “Content (%)” value (25° C./60% RH, 7 days) was 100.83% and the “Related substance (%)” value (25° C./60% RH, 7 days) was 0.08%. For the same molecule, the Appearance (25° C./60% RH, 14 days) was “Off-white”, the “Content (%)” value (25° C./60% RH, 14 days) was 99.82% and the “Related substance (%)” value (25° C./60% RH, 14 days) was 0.09%. For the same molecule, the Appearance (25° C./60% RH, 30 days) was “Off-white”, the “Content (%)” value (25° C./60% RH, 30 days) was 100.33% and the “Related substance (%)” value (25° C./60% RH, 30 days) was 0.09%. For the same molecule, the Appearance (40° C./75% RH, 0 days) was “Off-white”, the “Content (%)” value (40° C./75% RH, 0 days) was 100.00% and the “Related substance (%)” value (40° C./75% RH, 0 days) was 0.08%. The Appearance (40° C./75% RH, 5 days) was “Off-white”, the “Content (%)” value (40° C./75% RH, 5 days) was 100.43% and the “Related substance (%)” value (40° C./75% RH, 5 days) was 0.09%. The Appearance (40° C./75% RH, 7 days) was “Off-white”, the “Content (%)” value (40° C./75% RH, 7 days) was 100.84% and the “Related substance (%)” value (40° C./75% RH, 7 days) was 0.09%. For the same molecule, the Appearance (40° C./75% RH, 14 days) was “Off-white”, the “Content (%)” value (40° C./75% RH, 14 days) was 100.17% and the “Related substance (%)” value (40° C./75% RH, 14 days) was 0.09%. For the same molecule, the Appearance (40° C./75% RH, 30 days) was “Off-white”, the “Content (%)” value (40° C./75% RH, 30 days) was 100.96% and the “Related substance (%)” value (40° C./75% RH, 30 days) was 0.10%. The Appearance [1] was “Off-white”, the “Content (%)” value [1] was 100.00% and the “Related substance (%)” value [1] was 0.08%. For the same molecule, the Appearance [2] was “Off-white”, the “Content (%)” value [2] was 99.71% and the “Related substance (%)” value [2] was 0.10%. For the same molecule, the Appearance [3] was “Off-white”, the “Content (%)” value [3] was 102.34% and the “Related substance (%)” value [3] was 0.10%. For the same molecule, the Appearance [4] was “Off-white”, the “Content (%)” value [4] was 100.43% and the “Related substance (%)” value [4] was 0.09%. The Appearance [5] was “Off-white”, the “Content (%)” value [5] was 100.39% and the “Related substance (%)” value [5] was 0.09%.

With `CNC[C@H](O)c1ccc(O)c(O)c1` [epinephrine malonate] the Appearance (25° C./60% RH, 0 days) was “Off-white”, the “Content (%)” value (25° C./60% RH, 0 days) was 100.00% and the “Related substance (%)” value (25° C./60% RH, 0 days) was 0.01%. The Appearance (25° C./60% RH, 5 days) was “Off-white”, the “Content (%)” value (25° C./60% RH, 5 days) was 99.94% and the “Related substance (%)” value (25° C./60% RH, 5 days) was 0.02%. The Appearance (25° C./60% RH, 7 days) was “Off-white”, the “Content (%)” value (25° C./60% RH, 7 days) was 99.62% and the “Related substance (%)” value (25° C./60% RH, 7 days) was 0.02%. For the same molecule, the Appearance (25° C./60% RH, 14 days) was “Off-white”, the “Content (%)” value (25° C./60% RH, 14 days) was 98.81% and the “Related substance (%)” value (25° C./60% RH, 14 days) was 0.05%. For the same molecule, the Appearance (25° C./60% RH, 30 days) was “Off-white”, the “Content (%)” value (25° C./60% RH, 30 days) was 100.64% and the “Related substance (%)” value (25° C./60% RH, 30 days) was 0.05%. The Appearance (40° C./75% RH, 0 days) was “Off-white”, the “Content (%)” value (40° C./75% RH, 0 days) was 100.00% and the “Related substance (%)” value (40° C./75% RH, 0 days) was 0.01%. The Appearance (40° C./75% RH, 5 days) was “Off-white”, the “Content (%)” value (40° C./75% RH, 5 days) was 100.25% and the “Related substance (%)” value (40° C./75% RH, 5 days) was 0.03%. For the same molecule, the Appearance (40° C./75% RH, 7 days) was “Off-white”, the “Content (%)” value (40° C./75% RH, 7 days) was 101.64% and the “Related substance (%)” value (40° C./75% RH, 7 days) was 0.02%. The Appearance (40° C./75% RH, 14 days) was “Off-white”, the “Content (%)” value (40° C./75% RH, 14 days) was 99.63% and the “Related substance (%)” value (40° C./75% RH, 14 days) was 0.08%. For the same molecule, the Appearance (40° C./75% RH, 30 days) was “Off-white”, the “Content (%)” value (40° C./75% RH, 30 days) was 99.87% and the “Related substance (%)” value (40° C./75% RH, 30 days) was 0.11%. The Appearance [1] was “Off-white”, the “Content (%)” value [1] was 100.00% and the “Related substance (%)” value [1] was 0.01%. For the same molecule, the Appearance [2] was “Off-white”, the “Content (%)” value [2] was 99.81% and the “Related substance (%)” value [2] was 0.03%. For the same molecule, the Appearance [3] was “Off-white”, the “Content (%)” value [3] was 98.76% and the “Related substance (%)” value [3] was 0.03%. For the same molecule, the Appearance [4] was “Off-white”, the “Content (%)” value [4] was 99.83% and the “Related substance (%)” value [4] was 0.06%. The Appearance [5] was “Off-white”, the “Content (%)” value [5] was 100.64% and the “Related substance (%)” value [5] was 0.04%.

In the case of epinephrine maleate, the Appearance (25° C./60% RH, 0 days) is reported as “Off-white”, the “Content (%)” value (25° C./60% RH, 0 days) is reported as 100.00% and the “Related substance (%)” value (25° C./60% RH, 0 days) is reported as 0.17%. For the same molecule, the Appearance (25° C./60% RH, 5 days) was “Off-white”, the “Content (%)” value (25° C./60% RH, 5 days) was 99.50% and the “Related substance (%)” value (25° C./60% RH, 5 days) was 0.18%. The Appearance (25° C./60% RH, 7 days) was “Off-white”, the “Content (%)” value (25° C./60% RH, 7 days) was 99.97% and the “Related substance (%)” value (25° C./60% RH, 7 days) was 0.17%. The Appearance (25° C./60% RH, 14 days) was “Off-white”, the “Content (%)” value (25° C./60% RH, 14 days) was 99.43% and the “Related substance (%)” value (25° C./60% RH, 14 days) was 0.16%. The Appearance (25° C./60% RH, 30 days) was “Off-white”, the “Content (%)” value (25° C./60% RH, 30 days) was 100.69% and the “Related substance (%)” value (25° C./60% RH, 30 days) was 0.17%. For the same molecule, the Appearance (40° C./75% RH, 0 days) was “Off-white”, the “Content (%)” value (40° C./75% RH, 0 days) was 100.00% and the “Related substance (%)” value (40° C./75% RH, 0 days) was 0.17%. For the same molecule, the Appearance (40° C./75% RH, 5 days) was “Off-white”, the “Content (%)” value (40° C./75% RH, 5 days) was 99.30% and the “Related substance (%)” value (40° C./75% RH, 5 days) was 0.17%. The Appearance (40° C./75% RH, 7 days) was “Off-white”, the “Content (%)” value (40° C./75% RH, 7 days) was 97.76% and the “Related substance (%)” value (40° C./75% RH, 7 days) was 0.18%. For the same molecule, the Appearance (40° C./75% RH, 14 days) was “Off-white”, the “Content (%)” value (40° C./75% RH, 14 days) was 99.24% and the “Related substance (%)” value (40° C./75% RH, 14 days) was 0.16%. The Appearance (40° C./75% RH, 30 days) was “Off-white”, the “Content (%)” value (40° C./75% RH, 30 days) was 100.19% and the “Related substance (%)” value (40° C./75% RH, 30 days) was 0.16%. The Appearance [1] was “Off-white”, the “Content (%)” value [1] was 100.00% and the “Related substance (%)” value [1] was 0.17%. For the same molecule, the Appearance [2] was “Off-white”, the “Content (%)” value [2] was 99.86% and the “Related substance (%)” value [2] was 0.18%. For the same molecule, the Appearance [3] was “Off-white”, the “Content (%)” value [3] was 100.61% and the “Related substance (%)” value [3] was 0.19%. For the same molecule, the Appearance [4] was “Off-white”, the “Content (%)” value [4] was 99.84% and the “Related substance (%)” value [4] was 0.16%. For the same molecule, the Appearance [5] was “Off-white”, the “Content (%)” value [5] was 100.47% and the “Related substance (%)” value [5] was 0.17%.
